Measurements: ChEMBL document CHEMBL1240439, “Synthesis and docking studies of novel benzopyran-2-ones with anticancer activity” (2010)
Activity calls are given as the source filed them.

Experiments:
Assay type in all cases: functional
OVCAR-3 = experiment: Cytotoxicity against human OVCAR-3 cells assessed as cell growth at 10 uM after 48 hrs by sulforhodamine B assay
MDA-MB-435 = experiment: Cytotoxicity against human MDA-MB-435 cells assessed as cell growth at 10 uM after 48 hrs by sulforhodamine B assay
MDA-MB-468 = experiment: Cytotoxicity against human MDA-MB-468 cells assessed as cell growth at 10 uM after 48 hrs by sulforhodamine B assay
Hs-578T = experiment: Cytotoxicity against human Hs 578T cells assessed as cell growth at 10 uM after 48 hrs by sulforhodamine B assay
CCRF-CEM = experiment: Cytotoxicity against human CCRF-CEM cells assessed as cell growth at 10 uM after 48 hrs by sulforhodamine B assay
SF-268 = experiment: Cytotoxicity against human SF268 cells assessed as cell growth at 10 uM after 48 hrs by sulforhodamine B assay
HCT-116 = experiment: Cytotoxicity against human HCT116 cells assessed as cell growth at 10 uM after 48 hrs by sulforhodamine B assay
Malme-3M = experiment: Cytotoxicity against human MALME-3M cells assessed as cell growth at 10 uM after 48 hrs by sulforhodamine B assay
HOP-92 = experiment: Cytotoxicity against human HOP92 cells assessed as cell growth at 10 uM after 48 hrs by sulforhodamine B assay
UACC-257 = experiment: Cytotoxicity against human UACC257 cells assessed as cell growth at 10 uM after 48 hrs by sulforhodamine B assay
M14 = experiment: Cytotoxicity against human M14 cells assessed as cell growth at 10 uM after 48 hrs by sulforhodamine B assay
A549 = experiment: Cytotoxicity against human A549 cells assessed as cell growth at 10 uM after 48 hrs by sulforhodamine B assay
NCI-H23 = experiment: Cytotoxicity against human NCI-H23 cells assessed as cell growth at 10 uM after 48 hrs by sulforhodamine B assay
UO-31 = experiment: Cytotoxicity against human UO31 cells assessed as cell growth at 10 uM after 48 hrs by sulforhodamine B assay
NCI-H322M = experiment: Cytotoxicity against human NCI-H322M cells assessed as cell growth at 10 uM after 48 hrs by sulforhodamine B assay
TK-10 = experiment: Cytotoxicity against human TK10 cells assessed as cell growth at 10 uM after 48 hrs by sulforhodamine B assay
T47D = experiment: Cytotoxicity against human T47D cells assessed as cell growth at 10 uM after 48 hrs by sulforhodamine B assay
DU-145 = experiment: Cytotoxicity against human DU145 cells assessed as cell growth at 10 uM after 48 hrs by sulforhodamine B assay
OVCAR-5 = experiment: Cytotoxicity against human OVCAR5 cells assessed as cell growth at 10 uM after 48 hrs by sulforhodamine B assay
SF-539 = experiment: Cytotoxicity against human SF539 cells assessed as cell growth at 10 uM after 48 hrs by sulforhodamine B assay
A498 = experiment: Cytotoxicity against human A498 cells assessed as cell growth at 10 uM after 48 hrs by sulforhodamine B assay
SF-295 = experiment: Cytotoxicity against human SF295 cells assessed as cell growth at 10 uM after 48 hrs by sulforhodamine B assay
SNB-75 = experiment: Cytotoxicity against human SNB75 cells assessed as cell growth at 10 uM after 48 hrs by sulforhodamine B assay
SNB-19 = experiment: Cytotoxicity against human SNB19 cells assessed as cell growth at 10 uM after 48 hrs by sulforhodamine B assay
NCI-H460 = experiment: Cytotoxicity against human NCI-H460 cells assessed as cell growth at 10 uM after 48 hrs by sulforhodamine B assay
ACHN = experiment: Cytotoxicity against human ACHN cells assessed as cell growth at 10 uM after 48 hrs by sulforhodamine B assay
SK-MEL-5 = experiment: Cytotoxicity against human SK-MEL-5 cells assessed as cell growth at 10 uM after 48 hrs by sulforhodamine B assay
SW-620 = experiment: Cytotoxicity against human SW620 cells assessed as cell growth at 10 uM after 48 hrs by sulforhodamine B assay
U-251 = experiment: Cytotoxicity against human U251 cells assessed as cell growth at 10 uM after 48 hrs by sulforhodamine B assay
OVCAR-8 = experiment: Cytotoxicity against human OVCAR8 cells assessed as cell growth at 10 uM after 48 hrs by sulforhodamine B assay
IGROV-1 = experiment: Cytotoxicity against human IGROV1 cells assessed as cell growth at 10 uM after 48 hrs by sulforhodamine B assay
MCF7 = experiment: Cytotoxicity against human MCF7 cells assessed as cell growth at 10 uM after 48 hrs by sulforhodamine B assay
786-0 = experiment: Cytotoxicity against human 786-0 cells assessed as cell growth at 10 uM after 48 hrs by sulforhodamine B assay
BT-549 = experiment: Cytotoxicity against human BT549 cells assessed as cell growth at 10 uM after 48 hrs by sulforhodamine B assay
RXF 393 = experiment: Cytotoxicity against human RXF393 cells assessed as cell growth at 10 uM after 48 hrs by sulforhodamine B assay
MDA-MB-231 = experiment: Cytotoxicity against human MDA-MB-231 cells assessed as cell growth at 10 uM after 48 hrs by sulforhodamine B assay
LOX IMVI = experiment: Cytotoxicity against human LOXIMVI cells assessed as cell growth at 10 uM after 48 hrs by sulforhodamine B assay
NCI-H226 = experiment: Cytotoxicity against human NCI-H226 cells assessed as cell growth at 10 uM after 48 hrs by sulforhodamine B assay
SN12C = experiment: Cytotoxicity against human SN12C cells assessed as cell growth at 10 uM after 48 hrs by sulforhodamine B assay
HL-60(TB) = experiment: Cytotoxicity against human HL-60(TB) cells assessed as cell growth at 10 uM after 48 hrs by sulforhodamine B assay
EKVX = experiment: Cytotoxicity against human EKVX cells assessed as cell growth at 10 uM after 48 hrs by sulforhodamine B assay
HCC 2998 = experiment: Cytotoxicity against human HCC2998 cells assessed as cell growth at 10 uM after 48 hrs by sulforhodamine B assay
COLO 205 = experiment: Cytotoxicity against human COLO205 cells assessed as cell growth at 10 uM after 48 hrs by sulforhodamine B assay
SR = experiment: Cytotoxicity against human SR cells assessed as cell growth at 10 uM after 48 hrs by sulforhodamine B assay
SK-MEL-28 = experiment: Cytotoxicity against human SK-MEL-28 cells assessed as cell growth at 10 uM after 48 hrs by sulforhodamine B assay
SK-MEL-2 = experiment: Cytotoxicity against human SK-MEL-2 cells assessed as cell growth at 10 uM after 48 hrs by sulforhodamine B assay
OVCAR-4 = experiment: Cytotoxicity against human OVCAR4 cells assessed as cell growth at 10 uM after 48 hrs by sulforhodamine B assay
RPMI-8226 = experiment: Cytotoxicity against human RPMI8226 cells assessed as cell growth at 10 uM after 48 hrs by sulforhodamine B assay
UACC-62 = experiment: Cytotoxicity against human UACC62 cells assessed as cell growth at 10 uM after 48 hrs by sulforhodamine B assay
SK-OV-3 = experiment: Cytotoxicity against human SKOV3 cells assessed as cell growth at 10 uM after 48 hrs by sulforhodamine B assay
HCT-15 = experiment: Cytotoxicity against human HCT15 cells assessed as cell growth at 10 uM after 48 hrs by sulforhodamine B assay
MOLT-4 = experiment: Cytotoxicity against human MOLT4 cells assessed as cell growth at 10 uM after 48 hrs by sulforhodamine B assay
HT-29 = experiment: Cytotoxicity against human HT-29 cells assessed as cell growth at 10 uM after 48 hrs by sulforhodamine B assay
K562 = experiment: Cytotoxicity against human K562 cells assessed as cell growth at 10 uM after 48 hrs by sulforhodamine B assay
HOP-62 = experiment: Cytotoxicity against human HOP62 cells assessed as cell growth at 10 uM after 48 hrs by sulforhodamine B assay
PC-3 = experiment: Cytotoxicity against human PC3 cells assessed as cell growth at 10 uM after 48 hrs by sulforhodamine B assay
NCI-H522 = experiment: Cytotoxicity against human NCI-H522 cells assessed as cell growth at 10 uM after 48 hrs by sulforhodamine B assay
KM12 = experiment: Cytotoxicity against human KM12 cells assessed as cell growth at 10 uM after 48 hrs by sulforhodamine B assay

Measured: Activity

CCCc1cc(=O)oc2cc(OCc3nnc(S)o3)ccc12
inactive: all assays above

Cc1cc(C)n(C(=O)COc2ccc3c(-c4ccccc4)cc(=O)oc3c2C)n1
inactive: all assays above
